Test results: patent publication US12729186B2, “Prodrugs for sustained releasing therapeutic agents and uses thereof” (LIANGJIANG MEDICINE CO., LTD., priority 2020, dated 2026)

Assay: Drug release assay (hydrolysis rate test in pH 7.4 / pH 2.0 buffer, HPLC)
Type: physicochemical
Details: for Hydrolysis constant Kh pH 2.0 / Hydrolysis constant Kh pH 7.4: Kh=-ln[100%-Release rate (%)]/t; for Release rate (%) pH 2.0 (6 h): pH 2.0 buffer solution; for Release rate (%) pH 2.0 (6 h) / Release rate (%) pH 7.4 (0.5 h) / Release rate (%) pH 7.4 (6 h): 37° C., 200 rpm, residual content relative to 0 h by HPLC; for Release rate (%) pH 7.4 (0.5 h) / Release rate (%) pH 7.4 (6 h): pH 7.4 buffer solution
Description: Preparation of pH2.0 Buffer Solution
Preparation of pH7.4 Buffer Solution
Method of Hydrolysis Rate Test
The compounds were dissolved in pH7.4/pH2.0 buffer solution, placed in a constant temperature shaker at 37° C. and 200 rpm, and sampled at 0 h, 0.5 h and 6 h respectively. The residual contents of the compounds relative to 0 h were tested at each time point.
The release rates (%) were calculated using the following equation: Release rate (%)=[A(0h)−A(xh)]/A(0h)×100%, (x=0, 0.5, 6), A(xh) is the peak area of compounds tested by HPLC at the indicated time point.
The hydrolysis constants (Kh) were calculated using the following equation: Hydrolysis constant Kh=−ln[100%−Release rate (%)]/t Results

| SMILES | Hydrolysis constant Kh pH 2.0 | Release rate (%) pH 2.0 (6 h) | Hydrolysis constant Kh pH 7.4 | Release rate (%) pH 7.4 (0.5 h) | Release rate (%) pH 7.4 (6 h) |
| --- | --- | --- | --- | --- | --- |
| CCc1c2c(nc3ccc(OC(=O)CN(C4CCCCC4)C4CCCCC4)cc13)-c1cc3c(c(=O)n1C2)COC(=O)[C@]3(O)CC [Example 19, (S)-4,11-diethyl-4-hydroxy-3,14-dioxo-3,4,12,14-tetrahydro-1H-pyrano[3′,4′:6,7]indolizino[1,2-b]quinolin-9-yl dicyclohexylglycinate] | 0.041 | 21.8% | 0.865 | 35.1% | 100% |
| CC[C@@]1(O)C(=O)OCc2c1cc1n(c2=O)Cc2cc3cc(OC(=O)OCC4CCCN4C(c4ccccc4)c4ccccc4)ccc3nc2-1 (stereo partly drawn) [Example 20, (1-Benzhydrylpyrrolidin-2-yl)methyl ((S)-4-ethyl-4-hydroxy-3,14-dioxo-3,4,12,14-tetrahydro-1H-pyrano[3′,4′:6,7]indolizino[1,2-b]quinolin-9-yl) carbonate] | 0.078 | 37.2% | >20 | 100% | 100% |
| Cn1nnc2c(C(=O)NC(=O)Oc3ccc(CC4CCN(C(c5ccccc5)c5ccccc5)CC4)cc3)ncn2c1=O [Example 21, 4-((1-Benzhydrylpiperidin-4-yl)methyl)phenyl (3-methyl-4-oxo-3,4-dihydroimidazo[5,1-d][1,2,3,5]tetrazine-8-carbonyl)carbamate] | <0.001 | 0% | 3.397 | 81.7% | 100% |
| Cn1nnc2c(C(=O)NCc3ccc(CC4CCN(C(c5ccccc5)c5ccccc5)CC4)cc3)ncn2c1=O [Example 22, N-(4-((1-benzhydrylpiperidin-4-yl)methyl)benzyl)-3-methyl-4-oxo-3,4-dihydroimidazo[5,1-d][1,2,3,5]tetrazine-8-carboxamide] | <0.001 | 0% | 0.267 | 12.5% | 85.4% |
| COc1cccc2c1C(=O)c1c(O)c3c(c(O)c1C2=O)C[C@@](O)(C(C)=O)C[C@@H]3O[C@H]1C[C@H](NC(=O)Oc2ccc(CN3CCN(C)CC3)cc2)[C@H](OC(C)=O)[C@H](C)O1 [Example 23, (2S,3S,4S,6R)-6-(((1S,3S)-3-acetyl-3,5,12-trihydroxy-10-methoxy-6,11-dioxo-1,2,3,4,6,11-hexahydrotetracen-1-yl)oxy)-2-methyl-4-(((4-((4-methylpiperazin-1-yl)methyl)phenoxy)carbonyl)amino)tetrahydro-2H-pyran-3-yl acetate] | 0.004 | 2.5% | 0.149 | 7.2% | 70.8% |
| CCCCCCOC(=O)OCn1cc(F)c(=O)[nH]c1=O [Example 24, (5-Fluoro-2,4-dioxo-3,4-dihydropyrimidin-1(2H)-yl)methyl hexyl carbonate] | <0.001 | 0% | 0.094 | 4.6% | 55.7% |
| COc1ccc(OC(=O)OCn2cc(F)c(=O)[nH]c2=O)cc1 [Example 25, (5-Fluoro-2,4-dioxo-3,4-dihydropyrimidin-1(2H)-yl)methyl (4-methoxyphenyl) carbonate] | 0.151 | 40.5% | 0.451 | 20.2% | 61.3% |
